Source: DBAASP
≈ marks a conversion by molar mass, not a printed value.

Columns and labels:
Experiment in all cases: ≥ marks a high value that may be exact or a test limit, other limits are often not marked, values filed in µg/mL are converted to µM
Pseudomonas aeruginosa = tested on: Pseudomonas aeruginosa
Enterococcus faecalis = tested on: Enterococcus faecalis
Acinetobacter baumannii = tested on: Acinetobacter baumannii
Staphylococcus aureus = tested on: Staphylococcus aureus
[1] = tested on: Burkholderia cepacia ATCC 25416
[2] = tested on: Pseudomonas aeruginosa Z61
[3] = tested on: Pseudomonas aeruginosa H744
[4] = tested on: Salmonella enterica subsp. enterica serovar Typhimurium ATCC 14028s
[5] = tested on: Pseudomonas aeruginosa H547
Escherichia coli UB1005 = tested on: Escherichia coli UB1005
[6] = tested on: Pseudomonas aeruginosa K799
[7] = tested on: Staphylococcus aureus NCTC 10788
[8] = tested on: Escherichia coli NCTC 10418
[9] = tested on: Candida albicans NCYC 1467
[10] = tested on: Candida albicans ATCC 90028
[11] = tested on: Cryptococcus neoformans ATCC 28957
[12] = tested on: Bacillus subtilis ATCC 23857
[13] = tested on: Pseudomonas aeruginosa ATCC 27853
[14] = tested on: Bacillus subtilis CMCC 63501
[15] = tested on: Enterococcus faecalis ATCC 29212
[16] = tested on: Escherichia coli ATCC 25922
[17] = tested on: Staphylococcus aureus ATCC 43300
[18] = tested on: Salmonella enterica subsp. enterica serovar Pullorum C79-13
[19] = tested on: Staphylococcus epidermidis ATCC 12228
[20] = tested on: Salmonella enterica subsp. enterica serovar Typhimurium C77-31
[21] = tested on: Staphylococcus aureus ATCC 29213
[22] = tested on: Staphylococcus aureus NCTC 12493
Klebsiella pneumoniae = tested on: Klebsiella pneumoniae
[23] = tested on: Staphylococcus epidermidis
Escherichia coli = tested on: Escherichia coli
[24] = tested on: Salmonella enterica subsp. enterica serovar Typhimurium ATCC 14028

An MIC (Pseudomonas aeruginosa) of 0.61 µM (≈ 1.2 µg/mL), an MIC (Enterococcus faecalis) of 0.356 µM (≈ 0.7 µg/mL) and an MIC (Acinetobacter baumannii) of 0.203 µM (≈ 0.4 µg/mL) were found for `CC(C)C[C@H](NC(=O)[C@H](CC(C)C)NC(=O)[C@H](CCCCN)NC(=O)[C@H](CCCCN)NC(=O)[C@H](C)NC(=O)[C@H](CC(C)C)NC(=O)[C@H](C)NC(=O)[C@H](CCCCN)NC(=O)[C@H](CC(C)C)NC(=O)[C@H](Cc1c[nH]c2ccccc12)NC(=O)[C@H](Cc1c[nH]c2ccccc12)NC(=O)[C@H](CCCN=C(N)N)NC(=O)[C@H](Cc1c[nH]c2ccccc12)NC(=O)[C@H](CCCCN)NC(=O)[C@@H](N)CCCCN)C(N)=O` [KKWRWWLKALAKKLL] in this work. It also gave an MIC (Staphylococcus aureus) of 0.254 µM (≈ 0.5 µg/mL).
An MIC [1] of 21.6 µM (≈ 64 µg/mL), an MIC [2] of 1.35 µM (≈ 4 µg/mL) and an MIC [3] of 0.676 µM (≈ 2 µg/mL) were found for `CC[C@H](C)[C@H](NC(=O)[C@H](CC(C)C)NC(=O)[C@H](C)NC(=O)[C@H](CC(C)C)NC(=O)[C@@H]1CCCN1C(=O)[C@H](CCCCN)NC(=O)[C@H](C)NC(=O)[C@@H](NC(=O)[C@@H](NC(=O)[C@@H](NC(=O)[C@@H](NC(=O)[C@H](CCCCN)NC(=O)[C@H](CCCCN)NC(=O)[C@H](C)NC(=O)[C@H](C)NC(=O)[C@H](CO)NC(=O)[C@@H](NC(=O)[C@H](CC(C)C)NC(=O)[C@H](CCCCN)NC(=O)[C@H](CCCCN)NC(=O)[C@@H](NC(=O)[C@H](Cc1ccccc1)NC(=O)[C@H](CO)NC(=O)[C@H](CCCCN)NC(=O)[C@H](Cc1c[nH]c2ccccc12)NC(=O)[C@@H](N)CCCCN)[C@@H](C)CC)[C@@H](C)O)C(C)C)C(C)C)[C@@H](C)O)[C@@H](C)O)C(=O)N[C@@H](CO)C(=O)O` [KWKSFIKKLTSAAKKVVTTAKPLALIS] in this work. For the same molecule, the MIC [4] was 1.69 µM (≈ 5 µg/mL), the MIC [5] was 5.41 µM (≈ 16 µg/mL) and the MIC (Escherichia coli UB1005) was 0.676 µM (≈ 2 µg/mL). The MIC [6] was 1.35 µM (≈ 4 µg/mL).
An MIC [7] of 8 µM (≈ 20.5 µg/mL), an MIC [8] of 8 µM (≈ 20.5 µg/mL) and an MIC [9] of 4 µM (≈ 10.2 µg/mL) were found for `CC[C@H](C)[C@H](NC(=O)[C@H](CCCCN)NC(=O)[C@H](CCCCN)NC(=O)[C@H](Cc1c[nH]c2ccccc12)NC(=O)[C@H](CC(C)C)NC(=O)[C@H](C)N)C(=O)N[C@@H](CC(C)C)C(=O)N[C@@H](CCCCN)C(=O)N[C@@H](CC(N)=O)C(=O)N[C@@H](C)C(=O)NCC(=O)N[C@@H](CCCCN)C(=O)N[C@@H](C)C(=O)N[C@@H](C)C(=O)N[C@@H](CC(C)C)C(=O)N[C@@H](CC(N)=O)C(=O)N[C@@H](CCCCN)C(=O)N[C@H](C(=O)N[C@@H](CC(N)=O)C(=O)N[C@@H](CCC(N)=O)C(=O)N[C@H](C(=O)N[C@H](C(=O)N[C@@H](CCC(N)=O)C(N)=O)C(C)C)[C@@H](C)CC)[C@@H](C)CC` [ALWKKILKNAGKAALNKINQIVQ] in this work.
An MIC [10] of at least 128 µM, an MIC [11] of at least 128 µM and an MIC [12] of at least 64 µM were found for `CC[C@H](C)[C@H](N)C(=O)N[C@H](C(=O)N[C@@H](CC(N)=O)C(=O)N[C@@H](Cc1cnc[nH]1)C(=O)N[C@@H](CC(C)C)C(=O)N[C@H](C(=O)N[C@@H](CCCCN)C(=O)N[C@@H](CC(C)C)C(=O)N[C@@H](Cc1ccccc1)C(=O)N[C@@H](CC(=O)O)C(=O)N[C@@H](CCCCN)C(=O)NCC(=O)N[C@@H](CC(C)C)C(=O)N[C@@H](CC(N)=O)C(=O)N[C@@H](CO)C(=O)N[C@H](C(=O)N[C@H](C(=O)N[C@@H](CC(N)=O)C(=O)N[C@@H](CC(C)C)C(=O)N[C@@H](CCCN=C(N)N)C(N)=O)C(C)C)[C@@H](C)CC)C(C)C)C(C)C` [IVNHLVKLFDKGLNSIVNLR] in this work.
An MIC [13] of over 128 µM, an MIC [14] of at least 128 µM and an MIC [15] of over 128 µM were found for `CC[C@H](C)[C@H](NC(=O)[C@H](CCCN=C(N)N)NC(=O)[C@H](CCCCN)NC(=O)[C@H](Cc1ccccc1)NC(=O)[C@H](CCC(=O)O)NC(=O)[C@H](CCCCN)NC(=O)CN)C(=O)N[C@H](C(=O)N[C@@H](Cc1c[nH]c2ccccc12)C(=O)N[C@@H](CC(C)C)C(=O)N[C@@H](CO)C(=O)N[C@@H](CCCCN)C(=O)N[C@H](C(=O)N[C@@H](C)C(=O)N[C@@H](CCCCN)C(=O)N[C@@H](CCCCN)C(=O)N[C@@H](CC(C)C)C(N)=O)[C@@H](C)O)C(C)C` [GKEFKRIVWLSKTAKKL] in this work. The MIC [16] was 32 µM (≈ 65 µg/mL), the MIC [17] was over 128 µM and the MIC [18] was 16 µM (≈ 32.5 µg/mL). The MIC [19] was over 128 µM, the MIC (Escherichia coli UB1005) was at least 128 µM and the MIC [20] was at least 128 µM. It also gave an MIC [21] of over 128 µM.
An MIC (Pseudomonas aeruginosa) of over 512 µM, an MIC [13] of over 512 µM and an MIC [7] of 4 µM (≈ 9.12 µg/mL) were found for `CC[C@H](C)[C@@H]1NC(=O)[C@@H](NC(=O)[C@H](Cc2ccccc2)NC(=O)[C@H](C)NC(=O)[C@H](CCCCN)NC(=O)[C@H](CCCCN)NC(=O)[C@H](CC(C)C)NC(=O)[C@H](CC(C)C)NC(=O)[C@H](Cc2ccccc2)NC(=O)[C@@H](NC(=O)[C@H](CO)NC(=O)[C@@H]2CCCN2C(=O)[C@@H](NC(=O)[C@@H](NC(=O)[C@@H](N)Cc2ccccc2)[C@@H](C)CC)C(C)C)[C@@H](C)CC)CSSC[C@@H](C(=O)O)NC(=O)[C@H](CCCCN)NC(=O)[C@H](CCCCN)NC(=O)[C@H](CC(C)C)NC(=O)[C@H](C)NC1=O` [FIVPSIFLLKKAFCIALKKC] in this work. For the same molecule, the MIC [8] was 16 µM (≈ 36.5 µg/mL), the MIC (Staphylococcus aureus) was 8 µM (≈ 18.2 µg/mL) and the MIC [22] was 4 µM (≈ 9.12 µg/mL). It also gave an MIC [9] of 4 µM (≈ 9.12 µg/mL).
An MIC (Pseudomonas aeruginosa) of 2.6 µM (≈ 6.34 µg/mL), an MIC (Klebsiella pneumoniae) of 1.3 µM (≈ 3.17 µg/mL) and an MIC (Enterococcus faecalis) of 2.6 µM (≈ 6.34 µg/mL) were found for `CC[C@H](C)[C@H](NC(=O)CNC(=O)[C@H](CCCN=C(N)N)NC(=O)[C@H](Cc1ccc(O)cc1)NC(=O)[C@H](CC(C)C)NC(=O)[C@H](CCCCN)NC(=O)CNC(=O)[C@H](Cc1ccccc1)NC(=O)[C@@H](N)Cc1c[nH]c2ccccc12)C(=O)N[C@H](C(=O)N[C@@H](CO)C(=O)N[C@H](C(=O)N[C@H](C(=O)N[C@@H](CCCCN)C(=O)N[C@@H](CCCCN)C(=O)N[C@H](C(=O)N[C@@H](CCCCN)C(=O)NCC(=O)N[C@@H](CC(C)C)C(=O)N[C@@H](CC(C)C)C(=O)N[C@@H](CO)C(=O)NCC(=O)O)C(C)C)C(C)C)C(C)C)[C@@H](C)O` [WFGKLYRGITSVVKKVKGLLSG] in this work. For the same molecule, the MIC (Acinetobacter baumannii) was 1.3 µM (≈ 3.17 µg/mL), the MIC [23] was 2.6 µM (≈ 6.34 µg/mL) and the MIC (Escherichia coli) was 1.3 µM (≈ 3.17 µg/mL). The MIC (Staphylococcus aureus) was 10.3 µM (≈ 25.1 µg/mL).
An MIC [13] of 8 µM (≈ 12.6 µg/mL), an MIC [14] of 4 µM (≈ 6.29 µg/mL) and an MIC [15] of 4 µM (≈ 6.29 µg/mL) were found for `C[C@H](NC(=O)[C@H](C)NC(=O)[C@H](CCCCN)NC(=O)[C@H](C)NC(=O)[C@H](C)NC(=O)[C@H](C)NC(=O)[C@H](CCCCN)NC(=O)[C@H](Cc1c[nH]c2ccccc12)NC(=O)[C@@H](N)Cc1c[nH]c2ccccc12)C(=O)N[C@@H](C)C(=O)N[C@@H](CCCCN)C(=O)N[C@@H](Cc1c[nH]c2ccccc12)C(=O)N[C@@H](Cc1c[nH]c2ccccc12)C(N)=O` [WWKAAAKAAAKWW] in this work. The MIC [16] was 2 µM (≈ 3.15 µg/mL), the MIC [18] was 2 µM (≈ 3.15 µg/mL) and the MIC [19] was 4 µM (≈ 6.29 µg/mL). The MIC (Escherichia coli UB1005) was 4 µM (≈ 6.29 µg/mL), the MIC [24] was 8 µM (≈ 12.6 µg/mL) and the MIC [21] was 4 µM (≈ 6.29 µg/mL).
